Measured values published in patent publication US9416138B2, “Benzyl sulfonamide compounds useful as MoGAT-2 inhibitors” (Eli Lilly and Company, priority 2012, dated 2016).
Where a name gives a salt, the structure may show the parent alone.

Key:
human MoGAT-2 [1] = biological target: T1, human MoGAT-2 (Homo sapiens, UniProt Q3SYC2); experiment: Inhibitory Activity in MOGAT-2 Cell Assay (Caco-2 cells stably transfected with human MoGAT-2, HDG substrate, LC-MS); format: cell-based; parameters: expressed in transfected cells; details: Caco-2 cells expressing human MoGAT-2; 4 hours treatment with HDG/DOPC; read-out: C50 nM (Std Dev.; n*)
T1 sequence (Q3SYC2 whole entry): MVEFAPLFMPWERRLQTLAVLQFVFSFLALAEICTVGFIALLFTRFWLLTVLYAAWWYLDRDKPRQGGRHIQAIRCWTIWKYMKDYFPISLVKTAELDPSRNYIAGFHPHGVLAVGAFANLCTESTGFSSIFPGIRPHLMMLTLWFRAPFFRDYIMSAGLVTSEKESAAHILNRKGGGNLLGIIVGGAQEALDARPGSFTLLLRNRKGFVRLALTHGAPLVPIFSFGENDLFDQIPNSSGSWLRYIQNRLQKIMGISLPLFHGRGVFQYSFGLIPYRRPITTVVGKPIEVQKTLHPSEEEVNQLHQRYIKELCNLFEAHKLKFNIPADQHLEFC
Description: The inhibitory activity of compounds against human MoGAT-2 in a cell environment is evaluated in this assay. Caco-2 is a human colon carcinoma cell line and is often used as a model for intestinal epithelial cells. […] The substrate is delivered to cells using as a mixture with DOPC in the form of sonicated vesicles. Seed the Caco2 cells onto 100 mm dishes to be 80% confluent after 24 hours in complete media (3/1 DMEM: F12+10% FBS+20 mM HEPES+gentamicin). Transfect the cells with hMoGAT-2 plasmid (MOGAT-2-pCDNA3.1-Hygro) using Lipofectamine 2000 (Invitrogen). After a 6 hour exposure to the transfection mixture, wash the cells three times in PBS and then add media. Incubate the cells for an additional 18 hours incubation, trypsinize the cells and serially dilute them into 100 mm dishes. Add complete media+400 μg/ml hygromycin and incubate until clones appear. Isolate and transfer the clones into 24 well dishes and grow to confluency. Prepare the RNAs from these clones using a Qiagen RNAeasy kit. Perform Taqman analysis using an ABI inventoried assay (HS00228262) on a 7900 Sequence Detection System (ABI). Analyze the lysates from these clones by Western blot analysis using a goat polyclonal antibody (Santa Cruz, SC-32392 to confirm human MoGAT-2 expression of a 38 kD protein corresponding to MoGAT-2. […] Add 20 ml of buffer (150 mM Tris-Cl pH 7.4, 250 mM sucrose, 1 mM EDTA) to the dried HDG/DOPC mixture while sonicating until the solution becomes clear. Plate the Caco2 cells into a poly-D-lysine coated 96-well plate (the “Cell Plate”) at 37° C., 5% CO2 overnight. […] Trypsinize the cells with 50 μl of trypsin solution and add 50 μl of PBS. Immediately freeze the cells on dry ice and store at -20° C. for LC-MS analysis. Extract the cells with chloroform/methanol as follows: transfer the cells to a 2 ml plate; wash the cell plate with 200 μL methanol and then transfer the methanol wash to the 2 ml plate; wash the cell plate again with 200 μL PBS and transfer the PBS wash to the 2 ml plate. Add chloroform (400 μL) with an internal standard (19.52 ng/mL) DAG (15:0,15:0 (Sigma)), D5-TAG (39.03 ng/mL) CDN (16,16,16) to the 2 mL Plate. Turn the sealed 2 mL Plate up and down (10×), then vortex and spin. Remove 400 μL of the lower layer from the 2 mL plate and add to the wells of another plate the “Final Plate”. Add CHCl3:MeOH (400 μL 2:1) to the 2 mL Plate. Again turn the sealed 2 mL Plate up and down (10×), vortex and spin. Remove 220 μL of the lower layer from the 2 mL Plate and add to the Final Plate. Dry the Final Plate and reconstitute with […] of IPA. […] Monitor the channels to collect data for the D5 C16 TAG internal standard as well as the ether TAG, and […] and […] natural TAGs. Solvent A is 80/20 H2O/Methanol with 20 μM ammonium acetate. Solvent B is 50/50 IPA/THF with 20 μM ammonium acetate. Flow rate is 0.4 mL/min Wash solvents are H2O/MeOH and DCM. Using Xcalibur software extract the areas of the peaks of interest, and export the data to Excel which uses the following formula: (area of ether TAG/area of […] natural TAG)/Area of IS. This ratio effectively accounts for variance of cell number in each well.

[2] = tested on: oil bolus-induced excursion of triglycerides in circulation; experiment: Dog Oil Bolus Model; format: in vivo, dog (male beagles); details: 10 mg/kg dose, olive oil bolus, plasma net TAG AUC, statistically significant (p<0.05)
Description: Inhibiting MoGAT-2 found in the small intestine may be useful for treating hypertriglyceridemia caused by excessive fat intake Inhibition of MoGAT-2 disrupts resynthesis of triglycerides, which reduces secretion of triglycerides from the intestine. Therefore, MoGAT-2 inhibition interferes with a specific process that leads to eventual secretion of triglycerides into the intestine for eventual circulation through the body. To assess the ability of one or more of the exemplified compounds to inhibit MoGAT-2 induced TAG secretion into the intestine as measured in the blood system, the following protocol can be followed:
Twenty one male beagles are enrolled for each study, each dog selected to have a body weight between 9-13 kg. […]
The analyte is the [M+NH4]+ ion of TAG 18:1 18:1 18:1, which has a mass of 902.8 m/z; the internal standard is D5 TAG 16:0 16:0 16:0, which has a mass of 829.8 m/z. […] The percent inhibition of plasma triglyceride is calculated as follows: the (oil bolus group mean of net TAG AUC−oil bolus group mean of net TAG AUC with compound treatment/oil bolus group mean of net TAG AUC)*100. […] The ability of exemplified compounds of the present invention to inhibit MoGAT-2 activity and reduce TAG absorption in vivo can be further evaluated according to this assay.

human MoGAT-2 [3] = biological target: T1, human MoGAT-2; experiment: MOGAT-2 Inhibitory Assay (SF9 cell lysate, 14C-oleoyl-CoA, Microscint E extraction); format: biochemical; parameters: made in house; host or cells: insect SF9 cells (cell lysate supernatant); details: human MoGAT-2 expressed in SF9 cells, cell extract; 90 minutes at room temperature
Description: The in vitro inhibitory activity of compounds against human MoGAT-2 is evaluated in this assay. MoGAT-2 transfers an oleoyl group to monooleoyl-glycerol (“MAG”) from oleoyl-CoA to form dioleoyl-glycerol (“DAG”) in the intestinal triglyceride resynthesis pathway. The assay takes advantage of Microscint E extraction, which extracts hydrophobic molecules selectively over hydrophilic ones to separate the ^14C-oleoyl-CoA from ^14C-DAG.
Genetically engineered insect SF9 cells express human MoGAT-2. Prepare the cell lysate in 20 mM of NaCl with protease inhibitor (Roche Cat#11873580001). Homogenize the SF9 cells expressing human MoGAT-2 at 15,000 rpm for 20×2 seconds (PT-3100 Polytrone). Centrifuge the homogenate at 1000 g for 10 minutes at 4° C. Collect the supernatant into a separate tube for protein quantification and activity testing. Purify the glycerol monooleate substrate (Spectrum Chemical, CAS#25496-72-4) chromatographically. Prepare the monoacylglyerol (MAG) substrate in phospholipid vescicles (dioleoyl phosphatidylcholine “DOPC”). Prepare the MAG/DOPC vesicles at 20 mM concentration of total lipids (MAG and DOPC). Prepare different molar ratios of MAG to total lipids for either compound screening (8.9%) or compound kinetic studies (2.6-40%). Mix the appropriate amount of purified MAG and DOPC (Avanti Polar Lipids #850375C) in chloroform in a glass tube. […]

IC50 (human MoGAT-2 [1])	SMILES	other results
294 nM	C[C@@H](NS(C)(=O)=O)c1ccc(CNCC2COC(c3ccccc3)CO2)cc1 (single isomer, unassigned; isomer 2) [Example 29]	–
266 nM	CS(=O)(=O)N[C@@H](c1ccc(CNCCN2CCc3ccccc3C2=O)cc1)C(F)(F)F [Example 31, N-{(1S)-2,2,2-Trifluoro-1-[4-({[2-(1-oxo-3,4-dihydroisoquinolin-2(1H)-yl)ethyl]amino}methyl)phenyl]ethyl}methanesulfonamide hydrochloride]	–

The next lines start with the molecule.

SMILES	IC50 (human MoGAT-2 [1])	other results
C[C@@H](NS(C)(=O)=O)c1ccc(CNCC2COc3ccccc3N2)cc1 (single isomer, unassigned; isomer 2) [Example 14]	479 nM	–
C[C@@H](NS(C)(=O)=O)c1ccc(CNC[C@H]2COc3cccnc3O2)cc1.Cl [Example 2, N-{(1R)-1-[4-({[(3S)-2,3-Dihydro[1,4]dioxino[2,3-b]pyridin-3-ylmethyl]amino}methyl)phenyl]ethyl}methanesulfonamide hydrochloride]	–	reduction in TAG 18.1_18.1_18.1 [2]: 67%; reduction in total triglycerides [2]: 77%
C[C@@H](NS(C)(=O)=O)c1ccc(CNC2CCN(c3ccccc3)C2)cc1 (single isomer, unassigned; isomer 2) [Example 19]	105 nM	–
CS(=O)(=O)N[C@@H](c1ccc(CNC[C@H]2COc3cccnc3O2)cc1)C(F)(F)F [Example 1, N-{(1S)-1-[4-({[(3S)-2,3-Dihydro[1,4]dioxino[2,3-b]pyridin-3-ylmethyl]amino}methyl)phenyl]-2,2,2-trifluoroethyl}methanesulfonamide hydrochloride]	3.8 nM	IC50 (human MoGAT-2 [3]): 2.28 nM
